In US8901118B2, “Compounds and methods for kinase modulation, and indications therefor” (Plexxikon Inc., priority 2010, dated 2014):

Legend:
Fms kinase = Fms kinase (Homo sapiens, UniProt P07333); test: Fms kinase biochemical activity assay (AlphaScreen, biotin-(E4Y)10 phosphorylation); settings: 100 μM ATP; read-out: Biochemical Inhibition IC50 Fms
In short: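 Fms kinase (1 ng/well) phosphorylating 30 nM biotin-(E4Y)10 with 100 μM ATP in 25 mM Hepes pH 7.5, MgCl2/MnCl2, 5% DMSO, 20 min at 30 °C. Phosphotyrosine detected by AlphaScreen streptavidin donor and PY20 acceptor beads; IC50 from signal versus compound concentration.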

BCR-NTRK2 BaF3 cells = target: T1, BCR-NTRK2 BaF3 cells (Homo sapiens, UniProt Q16620); test: BaF3 BCR-NTRK2 cell proliferation assay (ATPlite); type: cell-based; settings: read-out: Inhibition of Cell Proliferation IC50, BCR/BaF3 TrkB
T1 construct: fused on or other part: P11274 (Breakpoint cluster region protein)
In short: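 BaF3 cells expressing BCR fusions were plated at 10,000 cells/well without IL-3, and MV-4-11 cells at 25,000 cells/well. Cells were treated the next day with an 8-point 1:3 dilution series (top 10 μM final) and incubated 3 days at 37 °C. ATPlite luminescence gave cell number, from which IC50 was fitted.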

Fms kinase, sequence (P07333 20-972): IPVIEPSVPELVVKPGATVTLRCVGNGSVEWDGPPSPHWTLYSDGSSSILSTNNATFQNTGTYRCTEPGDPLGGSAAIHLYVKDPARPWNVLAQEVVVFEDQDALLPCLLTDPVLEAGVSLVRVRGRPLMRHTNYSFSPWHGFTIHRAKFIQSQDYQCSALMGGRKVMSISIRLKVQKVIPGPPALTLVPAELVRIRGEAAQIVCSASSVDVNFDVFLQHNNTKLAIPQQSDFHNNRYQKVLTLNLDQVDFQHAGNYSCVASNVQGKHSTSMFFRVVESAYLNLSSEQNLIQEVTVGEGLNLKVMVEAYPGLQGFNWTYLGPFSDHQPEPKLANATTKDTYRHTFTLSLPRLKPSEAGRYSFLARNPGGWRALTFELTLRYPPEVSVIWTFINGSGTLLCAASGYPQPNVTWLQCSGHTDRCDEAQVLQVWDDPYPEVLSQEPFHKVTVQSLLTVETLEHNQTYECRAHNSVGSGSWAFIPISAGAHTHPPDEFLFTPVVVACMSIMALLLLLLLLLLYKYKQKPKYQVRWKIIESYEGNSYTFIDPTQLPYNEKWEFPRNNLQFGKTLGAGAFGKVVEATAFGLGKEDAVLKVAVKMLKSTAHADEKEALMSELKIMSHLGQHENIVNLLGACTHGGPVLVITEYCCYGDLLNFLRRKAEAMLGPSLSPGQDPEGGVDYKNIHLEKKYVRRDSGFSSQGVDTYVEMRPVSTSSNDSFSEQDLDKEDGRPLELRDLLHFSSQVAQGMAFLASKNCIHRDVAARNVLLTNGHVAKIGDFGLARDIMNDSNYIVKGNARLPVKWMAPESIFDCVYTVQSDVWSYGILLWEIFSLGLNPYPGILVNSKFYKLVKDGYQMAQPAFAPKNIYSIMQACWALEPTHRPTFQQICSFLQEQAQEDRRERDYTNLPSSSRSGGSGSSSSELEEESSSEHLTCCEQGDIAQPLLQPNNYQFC
T1 sequence (Q16620 538-807): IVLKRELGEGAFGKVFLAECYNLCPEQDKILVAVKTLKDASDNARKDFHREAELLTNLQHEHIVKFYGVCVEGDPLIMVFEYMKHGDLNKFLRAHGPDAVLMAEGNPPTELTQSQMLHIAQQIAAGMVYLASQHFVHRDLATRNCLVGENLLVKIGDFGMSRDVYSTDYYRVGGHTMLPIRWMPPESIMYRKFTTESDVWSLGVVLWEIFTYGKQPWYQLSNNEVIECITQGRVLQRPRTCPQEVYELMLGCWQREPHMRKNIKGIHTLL

| IC50 (Fms kinase) [nM] | IC50 (BCR-NTRK2 BaF3 cells) [nM] | Structure (SMILES) |
| --- | --- | --- |
| < 100 | < 1000 | CCOc1ncnc2[nH]cc(Cc3ccc(Nc4cccnc4)nc3F)c12 [Compound P-4021, [5-(4-Ethoxy-7H-pyrrolo[2,3-d]pyrimidin-5-ylmethyl)-6-fluoro-pyridin-2-yl]-pyridin-3-yl-amine] |
| < 10 | < 100 | CCc1ccc(Nc2ccc(Cc3c[nH]c4ncnc(OC)c34)c(F)n2)cn1 [Compound P-4007, (6-Ethyl-pyridin-3-yl)-[6-fluoro-5-(4-methoxy-7H-pyrrolo[2,3-d]pyrimidin-5-ylmethyl)-pyridin-2-yl]-amine] |
| < 100 | < 10 | COc1ncnc2[nH]cc(Cc3ccc(Nc4ccc(C5CC5)nc4)nc3F)c12 [Compound P-4004, (6-Cyclopropyl-pyridin-3-yl)-[6-fluoro-5-(4-methoxy-7H-pyrrolo[2,3-d]pyrimidin-5-ylmethyl)-pyridin-2-yl]-amine] |
| > 1000 | < 1000 | Cc1cnc2[nH]cc(Cc3cnc(Nc4cc(-c5ccc(F)cc5)n[nH]4)nc3)c2c1 [Compound P-3028, [5-(4-Fluoro-phenyl)-2H-pyrazol-3-yl]-[5-(5-methyl-1H-pyrrolo[2,3-b]pyridin-3-ylmethyl)-pyrimidin-2-yl]-amine] |
| < 100 | < 100 | CCOc1ccc(Nc2ccc(C(=O)c3c[nH]c4ncnc(C)c34)c(F)n2)cn1 [Compound P-4032, [6-(6-Ethoxy-pyridin-3-ylamino)-2-fluoro-pyridin-3-yl]-(4-methyl-7H-pyrrolo[2,3-d]pyrimidin-5-yl)-methanone] |
| < 100 | < 10 | CCOc1ccc(Nc2ccc(C(=O)c3c[nH]c4ncnc(C5CC5)c34)c(F)n2)cn1 [Compound P-4027, (4-Cyclopropyl-7H-pyrrolo[2,3-d]pyrimidin-5-yl)-[6-(6-ethoxy-pyridin-3-ylamino)-2-fluoro-pyridin-3-yl]-methanone] |
| < 10 | < 100 | COc1ncnc2[nH]cc(Cc3ccc(Nc4ccc(C)nc4)nc3F)c12 [Compound P-4010, [6-Fluoro-5-(4-methoxy-7H-pyrrolo[2,3-d]pyrimidin-5-ylmethyl)-pyridin-2-yl]-(6-methyl-pyridin-3-yl)-amine] |
| < 1000 | > 10000 | Clc1cnc2[nH]cc(Cc3cnc(NC4CC4)nc3)c2c1 [Compound P-3005, [5-(5-Chloro-1H-pyrrolo[2,3-b]pyridin-3-ylmethyl)-pyrimidin-2-yl]-cyclopropyl-amine] |
| < 1000 | < 100 | CCOc1ccc(Nc2ccc(C(=O)c3c[nH]c4ncnc(OC)c34)c(F)n2)cn1 [Compound P-4024, [6-(6-Ethoxy-pyridin-3-ylamino)-2-fluoro-pyridin-3-yl]-(4-methoxy-7H-pyrrolo[2,3-d]pyrimidin-5-yl)-methanone] |
| < 1000 | > 1000 | Cc1cnc2[nH]cc(Cc3cnc(Nc4cc(OC(C)C)n[nH]4)nc3)c2c1 [Compound P-3038, (5-Isopropoxy-2H-pyrazol-3-yl)-[5-(5-methyl-1H-pyrrolo[2,3-b]pyridin-3-ylmethyl)-pyrimidin-2-yl]-amine] |
| < 10 | < 100 | CCOc1ncnc2[nH]cc(Cc3ccc(Nc4ccc(OC)nc4)nc3F)c12 [Compound P-4018, [5-(4-Ethoxy-7H-pyrrolo[2,3-d]pyrimidin-5-ylmethyl)-6-fluoro-pyridin-2-yl]-(6-methoxy-pyridin-3-yl)-amine] |
| < 10 | < 10 | CCOc1ccc(Nc2ccc(C(=O)c3c[nH]c4ncc(C)cc34)c(F)n2)cn1 [Compound P-3045, [6-(6-ethoxy-pyridin-3-ylamino)-2-fluoro-pyridin-3-yl]-(5-methyl-1H-pyrrolo[2,3-b]pyridin-3-yl)-methanone] |
| < 100 | < 100 | Fc1nc(NC2CCC(F)(F)CC2)ccc1Cc1c[nH]c2ncnc(NCC(F)(F)F)c12 [Compound P-4128, 5-[[6-[(4,4-difluorocyclohexyl)amino]-2-fluoro-3-pyridyl]methyl]-N-(2,2,2-trifluoroethyl)-7H-pyrrolo[2,3-d]pyrimidin-4-amine] |
| < 100 | < 1000 | COc1ccc(Nc2ccc(Cc3c[nH]c4ncnc(C)c34)c(F)n2)cn1 [Compound P-4002, [6-Fluoro-5-(4-methyl-7H-pyrrolo[2,3-d]pyrimidin-5-ylmethyl)-pyridin-2-yl]-(6-methoxy-pyridin-3-yl)-amine] |

More lines, now with the values behind:

| Structure (SMILES) | IC50 (Fms kinase) [nM] | IC50 (BCR-NTRK2 BaF3 cells) [nM] |
| --- | --- | --- |
| CCOc1ccc(Nc2ccc(Cc3c[nH]c4ncnc(C5CC5)c34)c(F)n2)cn1 [Compound P-4026, [5-(4-Cyclopropyl-7H-pyrrolo[2,3-d]pyrimidin-5-ylmethyl)-6-fluoro-pyridin-2-yl]-(6-ethoxy-pyridin-3-yl)-amine] | < 10 | < 10 |
| Fc1cccc(Nc2ncc(Cc3c[nH]c4ncc(Cl)cc34)cn2)c1 [Compound P-3017, [5-(5-Chloro-1H-pyrrolo[2,3-b]pyridin-3-ylmethyl)-pyrimidin-2-yl]-(3-fluoro-phenyl)-amine] | < 100 | > 10000 |
| Cc1cnc2[nH]cc(Cc3ccc(Nc4ccc(C)nc4)nc3F)c2c1 [Compound P-3041, [6-Fluoro-5-(5-methyl-1H-pyrrolo[2,3-b]pyridin-3-ylmethyl)-pyridin-2-yl]-(6-methyl-pyridin-3-yl)-amine] | < 10 | < 1000 |
| Fc1nc(Nc2ccc(C3CC3)nc2)ccc1Cc1c[nH]c2ncnc(NCC(F)(F)F)c12 [Compound P-4130, 5-[[6-[(6-cyclopropyl-3-pyridyl)amino]-2-fluoro-3-pyridyl]methyl]-N-(2,2,2-trifluoroethyl)-7H-pyrrolo[2,3-d]pyrimidin-4-amine] | < 10 | < 10 |
| COc1ccc(Nc2ncc(Cc3c[nH]c4ncc(C)cc34)cn2)cc1F [Compound P-3023, (3-Fluoro-4-methoxy-phenyl)-[5-(5-methyl-1H-pyrrolo[2,3-b]pyridin-3-ylmethyl)-pyrimidin-2-yl]-amine] | < 100 | < 1000 |
| Cc1cnc2[nH]cc(Cc3cnc(Nc4cc(C(C)(C)C)n[nH]4)nc3)c2c1 [Compound P-3029, (5-tert-Butyl-2H-pyrazol-3-yl)-[5-(5-methyl-1H-pyrrolo[2,3-b]pyridin-3-ylmethyl)-pyrimidin-2-yl]-amine] | < 100 | > 1000 |
| CCOc1ccc(Nc2ccc(Cc3c[nH]c4ncnc(OC)c34)c(F)n2)cn1 [Compound P-4005, (6-Ethoxy-pyridin-3-yl)-[6-fluoro-5-(4-methoxy-7H-pyrrolo[2,3-d]pyrimidin-5-ylmethyl)-pyridin-2-yl]-amine] | < 10 | < 10 |
| CCc1ccc(Nc2ccc(Cc3c[nH]c4ncnc(C)c34)c(F)n2)cn1 [Compound P-4009, (6-Ethyl-pyridin-3-yl)-[6-fluoro-5-(4-methyl-7H-pyrrolo[2,3-d]pyrimidin-5-ylmethyl)-pyridin-2-yl]-amine] | < 10 | < 10 |
| CCOc1ccc(Nc2ccc(Cc3c[nH]c4ncnc(C)c34)c(F)n2)cn1 [Compound P-4006, (6-Ethoxy-pyridin-3-yl)-[6-fluoro-5-(4-methyl-7H-pyrrolo[2,3-d]pyrimidin-5-ylmethyl)-pyridin-2-yl]-amine] | < 10 | < 10 |
| COCCOc1ncnc2[nH]cc(Cc3ccc(Nc4ccc(OC)nc4)nc3F)c12 [Compound P-4019, {6-Fluoro-5-[4-(2-methoxy-ethoxy)-7H-pyrrolo[2,3-d]pyrimidin-5-ylmethyl]-pyridin-2-yl}-(6-methoxy-pyridin-3-yl)-amine] | < 10 | < 100 |
| CSc1ccc(Nc2ncc(Cc3c[nH]c4ncc(C)cc34)cn2)cc1 [Compound P-3033, [5-(5-Methyl-1H-pyrrolo[2,3-b]pyridin-3-ylmethyl)-pyrimidin-2-yl]-(4-methylsulfanyl-phenyl)-amine] | < 100 | < 100 |
| Cc1cnc2[nH]cc(C(=O)c3ccc(Nc4ccc(C)nc4)nc3F)c2c1 [Compound P-3043, [2-Fluoro-6-(6-methyl-pyridin-3-ylamino)-pyridin-3-yl]-(5-methyl-1H-pyrrolo[2,3-b]pyridin-3-yl)-methanone] | < 10 | < 100 |
| CCOc1ncnc2[nH]cc(Cc3ccc(Nc4ccc(C)nc4)nc3F)c12 [Compound P-4017, [5-(4-Ethoxy-7H-pyrrolo[2,3-d]pyrimidin-5-ylmethyl)-6-fluoro-pyridin-2-yl]-(6-methyl-pyridin-3-yl)-amine] | < 10 | < 1000 |
| Cc1cnc2[nH]cc(Cc3cnc(Nc4cc(C(F)(F)F)n[nH]4)nc3)c2c1 [Compound P-3037, [5-(5-Methyl-1H-pyrrolo[2,3-b]pyridin-3-ylmethyl)-pyrimidin-2-yl]-(5-trifluoromethyl-2H-pyrazol-3-yl)-amine] | > 1000 | > 10000 |
| CCOc1ncnc2[nH]cc(Cc3ccc(Nc4cnn(CC)c4)nc3F)c12 [Compound P-4012, [5-(4-Ethoxy-7H-pyrrolo[2,3-d]pyrimidin-5-ylmethyl)-6-fluoro-pyridin-2-yl]-(1-ethyl-1H-pyrazol-4-yl)-amine] | < 10 | < 100 |
| CCc1ccc(Nc2ccc(Cc3c[nH]c4ncnc(OCCOC)c34)c(F)n2)cn1 [Compound P-4016, (6-Ethyl-pyridin-3-yl)-{6-fluoro-5-[4-(2-methoxy-ethoxy)-7H-pyrrolo[2,3-d]pyrimidin-5-ylmethyl]-pyridin-2-yl}-amine] | < 10 | < 10 |
| CCc1ccc(Nc2ncc(Cc3c[nH]c4ncc(C)cc34)cn2)cc1 [Compound P-3025, (4-Ethyl-phenyl)-[5-(5-methyl-1H-pyrrolo[2,3-b]pyridin-3-ylmethyl)-pyrimidin-2-yl]-amine] | < 100 | < 10 |
